Legend:
[1] = 101 kPa, Liquid; for speed of sound: Linear variable-path acoustic interferometer
[2] = refractive index (Na D-line) (dimensionless); settings: 101.33 kPa, Liquid
[3] = xn = mol fraction of the nth substance listed; settings: 101 kPa, Liquid; for speed of sound: Linear variable-path acoustic interferometer
[4] = refractive index (Na D-line) (dimensionless); xn = mol fraction of the nth substance listed; settings: 101 kPa, Liquid

CC(C)CO [2-methyl-1-propanol]
Settings	mass density, 298.15 K [kg/m3]	mass density, 303.15 K [kg/m3]	mass density, 308.15 K [kg/m3]	refractive index, 298.15 K	refractive index, 303.15 K	refractive index, 308.15 K	speed of sound, 298.15 K [m/s]	viscosity, 298.15 K [mPa·s]	viscosity, 303.15 K [mPa·s]	viscosity, 308.15 K [mPa·s]
[1]	809.31	805.23	801.11	–	–	–	1170	3.097	2.635	2.249
[2]	–	–	–	1.3932	1.3917	1.3896	–	–	–	–

CC(C)CCO [3-methylbutan-1-ol]
Settings	mass density, 298.15 K [kg/m3]	mass density, 303.15 K [kg/m3]	mass density, 308.15 K [kg/m3]	refractive index, 298.15 K	refractive index, 303.15 K	refractive index, 308.15 K	speed of sound, 298.15 K [m/s]	viscosity, 298.15 K [mPa·s]	viscosity, 303.15 K [mPa·s]	viscosity, 308.15 K [mPa·s]
[1]	820.17	816.28	812.34	–	–	–	1259	2.779	2.258	1.844
[2]	–	–	–	1.4056	1.4034	1.4013	–	–	–	–

CCCCO [butan-1-ol]
Settings	mass density, 298.15 K [kg/m3]	mass density, 303.15 K [kg/m3]	mass density, 308.15 K [kg/m3]	refractive index, 298.15 K	refractive index, 303.15 K	refractive index, 308.15 K	speed of sound, 298.15 K [m/s]	viscosity, 298.15 K [mPa·s]	viscosity, 303.15 K [mPa·s]	viscosity, 308.15 K [mPa·s]
[1]	808.49	804.6	800.67	–	–	–	1268	2.587	2.254	1.988
[2]	–	–	–	1.3983	1.3959	1.394	–	–	–	–

CC1CCCCC1 [methylcyclohexane] + CCCCO
Settings	mass density, 298.15 K [kg/m3]	mass density, 303.15 K [kg/m3]	mass density, 308.15 K [kg/m3]	refractive index, 298.15 K	refractive index, 303.15 K	refractive index, 308.15 K	speed of sound, 298.15 K [m/s]	viscosity, 298.15 K [mPa·s]	viscosity, 303.15 K [mPa·s]	viscosity, 308.15 K [mPa·s]
[3], x1 = 0.1021	801.93	797.96	793.95	–	–	–	1263	2.396	2.122	1.848
[3], x1 = 0.2041	795.62	791.47	787.32	–	–	–	1258	2.205	1.957	1.709
[3], x1 = 0.3027	790.23	786.03	781.87	–	–	–	1253	2.021	1.797	1.573
[3], x1 = 0.4013	785.45	781.24	776.99	–	–	–	1248	1.834	1.636	1.438
[3], x1 = 0.5039	780.86	776.57	772.29	–	–	–	1243	1.639	1.468	1.296
[3], x1 = 0.6066	776.73	772.4	768.04	–	–	–	1238	1.443	1.288	1.153
[3], x1 = 0.7014	773.21	768.83	764.46	–	–	–	1233	1.262	1.141	1.021
[3], x1 = 0.7963	770.14	765.74	761.34	–	–	–	1227	1.08	0.9828	0.8858
[3], x1 = 0.8981	767.52	763.15	758.77	–	–	–	1222	0.8808	0.8104	0.74
[3], x1 = 1	764.99	760.66	756.3	–	–	–	1217	0.6757	0.631	0.5902
[4], x1 = 0.1021	–	–	–	1.4036	1.4015	1.3994	–	–	–	–
[4], x1 = 0.2041	–	–	–	1.4034	1.4008	1.3982	–	–	–	–
[4], x1 = 0.3027	–	–	–	1.406	1.4035	1.4009	–	–	–	–
[4], x1 = 0.4013	–	–	–	1.4087	1.4062	1.4037	–	–	–	–
[4], x1 = 0.5039	–	–	–	1.4105	1.4081	1.4057	–	–	–	–
[4], x1 = 0.6066	–	–	–	1.4121	1.4099	1.4076	–	–	–	–
[4], x1 = 0.7014	–	–	–	1.4147	1.4122	1.4097	–	–	–	–
[4], x1 = 0.7963	–	–	–	1.4169	1.4143	1.4117	–	–	–	–
[4], x1 = 0.8981	–	–	–	1.4193	1.4167	1.414	–	–	–	–
[4], x1 = 1	–	–	–	1.4217	1.4192	1.4163	–	–	–	–

CC1CCCCC1 [methylcyclohexane] + CCCO
Settings	mass density, 298.15 K [kg/m3]	mass density, 303.15 K [kg/m3]	mass density, 308.15 K [kg/m3]	refractive index, 298.15 K	refractive index, 303.15 K	refractive index, 308.15 K	speed of sound, 298.15 K [m/s]	viscosity, 298.15 K [mPa·s]	viscosity, 303.15 K [mPa·s]	viscosity, 308.15 K [mPa·s]
[3], x1 = 0.1008	801.22	796.96	792.71	–	–	–	1207	1.729	1.536	1.343
[3], x1 = 0.2027	794.2	789.87	785.57	–	–	–	1208	1.471	1.317	1.162
[3], x1 = 0.3047	788.08	783.7	779.32	–	–	–	1209	1.26	1.136	1.013
[3], x1 = 0.4039	782.97	778.55	774.13	–	–	–	1210	1.102	0.9975	0.8926
[3], x1 = 0.5031	778.56	774.16	769.74	–	–	–	1212	0.9688	0.8863	0.8037
[3], x1 = 0.6008	774.91	770.45	765.97	–	–	–	1213	0.8839	0.813	0.742
[3], x1 = 0.6985	771.66	767.2	762.69	–	–	–	1214	0.7998	0.7403	0.6808
[3], x1 = 0.799	768.83	764.32	759.8	–	–	–	1215	0.7511	0.6984	0.6457
[3], x1 = 0.8995	766.39	761.95	757.5	–	–	–	1216	0.7028	0.6568	0.6107
[3], x1 = 1	764.99	760.66	756.3	–	–	–	1217	0.6757	0.631	0.5902
[4], x1 = 0.1008	–	–	–	1.3888	1.3865	1.3841	–	–	–	–
[4], x1 = 0.2027	–	–	–	1.3934	1.391	1.3886	–	–	–	–
[4], x1 = 0.3047	–	–	–	1.3979	1.3955	1.3932	–	–	–	–
[4], x1 = 0.4039	–	–	–	1.4016	1.3994	1.3971	–	–	–	–
[4], x1 = 0.5031	–	–	–	1.4053	1.4032	1.4011	–	–	–	–
[4], x1 = 0.6008	–	–	–	1.409	1.4066	1.4043	–	–	–	–
[4], x1 = 0.6985	–	–	–	1.4127	1.4101	1.4075	–	–	–	–
[4], x1 = 0.799	–	–	–	1.4159	1.4133	1.4106	–	–	–	–
[4], x1 = 0.8995	–	–	–	1.4191	1.4164	1.4137	–	–	–	–
[4], x1 = 1	–	–	–	1.4217	1.4192	1.4163	–	–	–	–

CC1CCCCC1 [methylcyclohexane] + CCO
Settings	mass density, 298.15 K [kg/m3]	mass density, 303.15 K [kg/m3]	mass density, 308.15 K [kg/m3]	refractive index, 298.15 K	refractive index, 303.15 K	refractive index, 308.15 K	speed of sound, 298.15 K [m/s]	viscosity, 298.15 K [mPa·s]	viscosity, 303.15 K [mPa·s]	viscosity, 308.15 K [mPa·s]
[3], x1 = 0.1023	779.57	775.21	770.8	–	–	–	1167	0.9923	0.9068	0.8212
[3], x1 = 0.2031	775.92	771.51	767.07	–	–	–	1172	0.9225	0.8458	0.7691
[3], x1 = 0.304	772.55	768.07	763.6	–	–	–	1178	0.8558	0.788	0.7202
[3], x1 = 0.405	770.25	765.74	761.26	–	–	–	1183	0.808	0.7464	0.6848
[3], x1 = 0.5061	768.4	763.87	759.36	–	–	–	1189	0.7632	0.7079	0.6525
[3], x1 = 0.6029	767.13	762.62	758.09	–	–	–	1195	0.7293	0.677	0.6248
[3], x1 = 0.6998	766.01	761.51	756.97	–	–	–	1200	0.6984	0.6477	0.5971
[3], x1 = 0.8016	765.34	760.87	756.37	–	–	–	1206	0.6857	0.6392	0.5927
[3], x1 = 0.9034	764.79	760.27	755.77	–	–	–	1212	0.6762	0.6323	0.5884
[3], x1 = 1	764.99	760.66	756.3	–	–	–	1217	0.6757	0.631	0.5902
[4], x1 = 0.1023	–	–	–	1.371	1.3686	1.3662	–	–	–	–
[4], x1 = 0.2031	–	–	–	1.3796	1.3764	1.3744	–	–	–	–
[4], x1 = 0.304	–	–	–	1.3881	1.3853	1.3825	–	–	–	–
[4], x1 = 0.405	–	–	–	1.3949	1.3921	1.3893	–	–	–	–
[4], x1 = 0.5061	–	–	–	1.4017	1.3989	1.3961	–	–	–	–
[4], x1 = 0.6029	–	–	–	1.4068	1.4038	1.4008	–	–	–	–
[4], x1 = 0.6998	–	–	–	1.412	1.4087	1.4054	–	–	–	–
[4], x1 = 0.8016	–	–	–	1.417	1.4135	1.41	–	–	–	–
[4], x1 = 0.9034	–	–	–	1.4192	1.4169	1.4146	–	–	–	–
[4], x1 = 1	–	–	–	1.4217	1.4192	1.4163	–	–	–	–

CCCO [propan-1-ol] + CC1CCCCC1
x2 = 0
Settings	mass density, 298.15 K [kg/m3]	mass density, 303.15 K [kg/m3]	mass density, 308.15 K [kg/m3]	refractive index, 298.15 K	refractive index, 303.15 K	refractive index, 308.15 K	speed of sound, 298.15 K [m/s]	viscosity, 298.15 K [mPa·s]	viscosity, 303.15 K [mPa·s]	viscosity, 308.15 K [mPa·s]
[3]	809.65	805.5	801.32	–	–	–	1206	2.077	1.809	1.595
[4]	–	–	–	1.384	1.3819	1.38	–	–	–	–

CC(C)O [propan-2-ol] + CC1CCCCC1
x2 = 0
Settings	mass density, 298.15 K [kg/m3]	mass density, 303.15 K [kg/m3]	mass density, 308.15 K [kg/m3]	refractive index, 298.15 K	refractive index, 303.15 K	refractive index, 308.15 K	speed of sound, 298.15 K [m/s]	viscosity, 298.15 K [mPa·s]	viscosity, 303.15 K [mPa·s]	viscosity, 308.15 K [mPa·s]
[3]	781.05	776.79	772.43	–	–	–	1144	2.076	1.786	1.532
[4]	–	–	–	1.3765	1.3741	1.3716	–	–	–	–

— the NIST ThermoML archive (doi:10.1016/j.jct.2005.06.011)
